Measurements as given in ChEMBL document CHEMBL3132784, “Synthesis and biological evaluation of new conformationally restricted S-DABO hybrids as non-nucleoside inhibitors of HIV-1 reverse transcriptase” (Medchemcomm, 2014).

Tests used:
[1] = Selectivity index, ratio of CC50 for human MT4 cells to EC50 for wild-type HIV-1 3B infected in human MT4 cells; format: toxicity, cell-based; settings: read-out: Ratio CC50/EC50
[2] = Cytotoxicity against mock-infected human MT4 cells assessed as decrease in cell viability measured 5 days post-infection by MTT assay; format: cell-based
[3] = system: Human immunodeficiency virus 2; test: Antiviral activity against HIV-2 ROD infected in human MT4 cells assessed as protection against virus-induced cytopathic effect measured 5 days post-infection by MTT assay; format: functional, organism-based; settings: Human immunodeficiency virus 2, ROD, MT4, 120 h
[4] = system: Human immunodeficiency virus 1; test: Antiviral activity against HIV-1 RES056 harboring RT K103N+Y181C double mutant infected in human MT4 cells assessed as protection against virus-induced cytopathic effect measured 5 days post-infection by MTT assay; format: functional, organism-based; settings: Human immunodeficiency virus 1, RES056, MT4, 120 h
[5] = system: Human immunodeficiency virus 1; test: Antiviral activity against wild-type HIV-1 3B infected in human MT4 cells assessed as protection against virus-induced cytopathic effect measured 5 days post-infection by MTT assay; format: functional, organism-based; settings: Human immunodeficiency virus 1, 3B, MT4, 120 h
[6] = target: Human immunodeficiency virus type 1 reverse transcriptase (Human immunodeficiency virus 1, UniProt Q72547); test: Inhibition of HIV-1 wild type recombinant reverse transcriptase p66/p51 assessed as RNA-DNA heteroduplex formation using poly(rA) template/oligo(dT)16 primer incubated prior to enzyme addition by spectrofluorometer analysis

SMILES	selectivity ratio [1]	CC50 at 120 h [2] [µM]	EC50 [3] [µM]	EC50 [4] [µM]	EC50 [5] [µM]	IC50 [6] [µM]
COc1ccc(CSc2nc(C(C#N)c3cccc(F)c3)c(C)c(=O)[nH]2)cc1 (stereo not drawn)	6	173	> 173	> 173	29.1	
COc1ccc(CSc2nc(C(C#N)c3ccccc3Br)c(C)c(=O)[nH]2)cc1 (stereo not drawn)	208	86.7	> 86.7	> 86.7	0.42	1.55
COc1ccc(CSc2nc(C(C#N)c3cccc(Br)c3)c(C)c(=O)[nH]2)cc1 (stereo not drawn)	10	156	> 156	> 156	16.3	
COc1ccc(CSc2nc(C(C#N)c3ccc(Cl)cc3)c(C(C)C)c(=O)[nH]2)cc1 (stereo not drawn)	≤ 2	85.2	> 85.2	> 85.2	> 40.7	
COc1ccc(CSc2nc(C(C#N)c3ccc(Br)cc3F)c(C)c(=O)[nH]2)cc1 (stereo not drawn)	< 1	22.5	> 22.5		> 22.5	
COc1ccc(CSc2nc(C(C#N)c3cccc(Br)c3)c(C(C)C)c(=O)[nH]2)cc1 (stereo not drawn)	21	119	> 119	> 119	5.72	
CCc1c(C(C#N)c2ccc(Br)cc2)nc(SCc2ccc(OC)cc2)[nH]c1=O (stereo not drawn)	< 1	23.9	> 23.9		> 23.9	
COc1ccc(CSc2nc(C(C#N)c3ccccc3Br)c(C(C)C)c(=O)[nH]2)cc1 (stereo not drawn)	6	26.7	> 26.7	> 26.7	4.46	
O=C1Nc2ccc(Cl)cc2[C@@](C#CC2CC2)(C(F)(F)F)O1 [EFAVIRENZ]		> 6.34				
COc1ccc(CSc2nc(C(C#N)c3ccc(Cl)cc3)c(C)c(=O)[nH]2)cc1 (stereo not drawn)	< 1	28.9	> 28.9		> 28.9	
Cc1cn([C@H]2C[C@H](N=[N+]=[N-])[C@@H](CO)O2)c(=O)[nH]c1=O [ZIDOVUDINE]	> 14400	> 93.6		0.0063	0.0064	
CCc1c(C(C#N)c2cccc(F)c2)nc(SCc2ccc(OC)cc2)[nH]c1=O (stereo not drawn)	24	173	> 173	> 173	7.08	
COc1ccc(CSc2nc(C(C#N)c3c(F)cccc3Cl)c(C)c(=O)[nH]2)cc1 (stereo not drawn)	548	50.1	> 50.1	> 50.1	0.091	0.17
COc1ccc(CSc2nc(C(C#N)c3c(Cl)cccc3Cl)c(C)c(=O)[nH]2)cc1 (stereo not drawn)	252	48.8	> 48.8	> 48.8	0.19	0.23
COc1ccc(CSc2nc(C(C#N)c3ccc(F)cc3F)c(C)c(=O)[nH]2)cc1 (stereo not drawn)	8	157	> 157	> 157	20.7	
COc1ccc(CSc2nc(C(C#N)c3ccccc3Cl)c(C)c(=O)[nH]2)cc1 (stereo not drawn)	239	116	> 116	> 116	0.49	0.51
Nc1ccn([C@H]2CC[C@@H](CO)O2)c(=O)n1 [ZALCITABINE]	> 169	> 94.7	1.61		0.57	
Cc1ccnc2c1NC(=O)c1cccnc1N2C1CC1 [NEVIRAPINE]		> 15				
COc1ccc(CSc2nc(C(C#N)c3cccc(Cl)c3)c(C)c(=O)[nH]2)cc1 (stereo not drawn)	9	161	> 161	> 161	18	
CCc1c(C(C#N)c2ccccc2Cl)nc(SCc2ccc(OC)cc2)[nH]c1=O (stereo not drawn)	57	76.9	> 76.9	> 76.9	1.34	
CCc1c(C(C#N)c2ccccc2F)nc(SCc2ccc(OC)cc2)[nH]c1=O (stereo not drawn)	66	109	> 109	> 109	1.66	
COc1ccc(CSc2nc(C(C#N)c3ccc(F)cc3)c(C)c(=O)[nH]2)cc1 (stereo not drawn)	< 1	95.2	> 95.2		> 95.2	
COc1ccc(CSc2nc(C(C#N)c3cc(F)cc(F)c3)c(C)c(=O)[nH]2)cc1 (stereo not drawn)	7	154	> 154	> 154	21.3	
COc1ccc(CSc2nc(C(C#N)c3ccccc3Cl)c(C(C)C)c(=O)[nH]2)cc1 (stereo not drawn)	7	27.4	> 27.4	> 27.4	3.91	
COc1ccc(CSc2nc(C(C#N)c3ccc(F)cc3)c(C(C)C)c(=O)[nH]2)cc1 (stereo not drawn)	7	137	> 137	> 137	20.4	
CC(C)Nc1cccnc1N1CCN(C(=O)c2cc3cc(NS(C)(=O)=O)ccc3[nH]2)CC1 [DELAVIRDINE]	> 338	> 36.2		> 36.2		
